# Results from patent publication US11179376B2, “Salts of pyrazolo[1,5-a]pyridine derivative and use thereof” (SUNSHINE LAKE PHARMA CO., LTD., priority 2017, dated 2021).
# Structures can show the parent of a compound that is named as a salt. Where two headings read alike, the source gives them in different places.
# Test: Pharmacokinetics test in beagle dogs (capsule by gavage, plasma LC/MS/MS)
# Format: in vivo
# Procedure: The LC/MS/MS system used in the analysis consists of an Agilent 1200 Series vacuum degasser, binary pump, well-plate autosampler, thermostated column compartment, the Agilent G6430 Triple Quadrupole Mass Spectrometer with an electrosprayionization (ESI) source. Quantitative analysis was carried out using MRM mode. The parameters for MRM transitions are in the Table A.
# An Agilent XDB-C18, 2.1×30 mm, 3.5 μM column was used for the analysis. 5 μL of the samples were injected. Analysis condition: The mobile phase was 0.1% formic acid in water (A) and 0.1% formic acid in methanol (B). The flow rate was 0.4 mL/min. And the gradient of Mobile phase was in the Table B.
# An ESI source was used on the LC/MS/MS spectrometer. The analysis was done in positive ion mode as appropriate and the MRM transition for each analyte was optimized using standard solution. A Capcell MP-C18 100×4.6 mm I.D., […] column (Phenomenex, Torrance, Calif., USA) was used during the analysis. The mobile phase was 5 mM ammonia acetate, 0.1% MeOH in water (A): 5 mM ammonia acetate, 0.1% MeOH in acetonitrile (B) (70/30, v/v). The flow rate was 0.6 mL/min. Column was maintained at ambient temperature. 20 μL of the samples were injected.
# The blood samples (0.3 mL) were drawn at 0.25, 0.5, 1.0, 2.0, 3.0, 4.0, 6.0, 8.0, 12 and 24 hour time points or 0.083, 0.25, 0.5, 1.0, 2.0, 4.0, 6.0, 8.0 and 24 hour time points and centrifuged at 3,000 or 4000 rpm for 2 to 10 min. The plasma solutions were collected, and analyzed by LC/MS/MS as described above. The pharmacokinetic parameters were calculated according to non-compartment model using WinNonlin procedure.
# [1] = capsule by gavage, dose 2.5 mg/kg, plasma
Compound,AUClast [1] [ng·h/mL],Cmax [1] [ng/mL],Tmax [1] [h],"AUC(0-t) (dog, po, capsule by gavage, dose 2.5 mg/kg, plasma) [ng·h/mL]","Cmax (dog, po, capsule by gavage, dose 2.5 mg/kg, plasma, read-out: Cmax) [ng/mL]","Tmax (dog, po, capsule by gavage, dose 2.5 mg/kg, plasma, read-out: Tmax) [h]",exposure and bioavailability in vivo (Cmax and AUClast much larger than those of compound of formula (I))
"COc1ncc(-c2ccn3ncc(C#N)c3c2)cc1NS(=O)(=O)c1ccc(F)cc1F [crystalline form A of mono-sodium salt, N-(5-(3-cyanopyrazolo[1,5-α]pyridin-5-yl)-2-methoxypyridin-3-yl)-2,4-difluorobenzenesulfonamide]",8730,2820,2.5,,,,
"COc1ncc(-c2ccn3ncc(C#N)c3c2)cc1NS(=O)(=O)c1ccc(F)cc1F [crystalline form A of mono-lithium salt, N-(5-(3-cyanopyrazolo[1,5-α]pyridin-5-yl)-2-methoxypyridin-3-yl)-2,4-difluorobenzenesulfonamide]",4290,1640,1.5,,,,
"COc1ncc(-c2ccn3ncc(C#N)c3c2)cc1NS(=O)(=O)c1ccc(F)cc1F [Compound of formula (I), N-(5-(3-cyanopyrazolo[1,5-α]pyridin-5-yl)-2-methoxypyridin-3-yl)-2,4-difluorobenzenesulfonamide]",,,,1550,482,1.67,
"COc1ncc(-c2ccn3ncc(C#N)c3c2)cc1NS(=O)(=O)c1ccc(F)cc1F [N-(5-(3-cyanopyrazolo[1,5-α]pyridin-5-yl)-2-methoxypyridin-3-yl)-2,4-difluorobenzenesulfonamide]",8420,3050,0.667,,,,good exposure and bioavailability
"COc1ncc(-c2ccn3ncc(C#N)c3c2)cc1NS(=O)(=O)c1ccc(F)cc1F [crystalline form A of mono-choline salt, N-(5-(3-cyanopyrazolo[1,5-α]pyridin-5-yl)-2-methoxypyridin-3-yl)-2,4-difluorobenzenesulfonamide]",9130,3220,1.08,,,,
"COc1ncc(-c2ccn3ncc(C#N)c3c2)cc1NS(=O)(=O)c1ccc(F)cc1F [amorphous form of mono-sodium salt, N-(5-(3-cyanopyrazolo[1,5-α]pyridin-5-yl)-2-methoxypyridin-3-yl)-2,4-difluorobenzenesulfonamide]",7290,2180,1.33,,,,
"COc1ncc(-c2ccn3ncc(C#N)c3c2)cc1NS(=O)(=O)c1ccc(F)cc1F [crystalline form C of mono-sodium salt, N-(5-(3-cyanopyrazolo[1,5-α]pyridin-5-yl)-2-methoxypyridin-3-yl)-2,4-difluorobenzenesulfonamide]",5700,1410,2.33,,,,
"COc1ncc(-c2ccn3ncc(C#N)c3c2)cc1NS(=O)(=O)c1ccc(F)cc1F [crystalline form B of mono-sodium salt, N-(5-(3-cyanopyrazolo[1,5-α]pyridin-5-yl)-2-methoxypyridin-3-yl)-2,4-difluorobenzenesulfonamide]",9370,4530,0.583,,,,
